Reference: the NIST ThermoML archive (doi:10.1021/je025657+)
Where “and” joins values, the source holds several entries; their conditions need not be identical. Equal values may be shown once.

COC(F)(F)C(F)(F)F [methyl pentafluoroethyl ether]
Conditions | mass density [kg/m3]
360 K, 2003.3 kPa, Liquid | 1056.42
360 K, 2053.3 kPa, Liquid | 1055.56
360 K, 2463 kPa, Liquid | 1063.09
360 K, 2984.8 kPa, Liquid | 1070.14
360 K, 3048.1 kPa, Liquid | 1069.38
360 K, 3506.1 kPa, Liquid | 1076.76
360 K, 4021.5 kPa, Liquid | 1082.91
360 K, 4078.7 kPa, Liquid | 1081.81
360 K, 4467.5 kPa, Liquid | 1087.96
360 K, 5021.2 kPa, Liquid | 1093.94
360 K, 5093.9 kPa, Liquid | 1092.92
360 K, 5527.2 kPa, Liquid | 1099.14
360 K, 5980.2 kPa, Liquid | 1103.61
360 K, 6147.8 kPa, Liquid | 1103.45
360 K, 6519.9 kPa, Liquid | 1108.71
360 K, 6997.3 kPa, Liquid | 1113.07
360 K, 7245.1 kPa, Liquid | 1113.38
370 K, 71.6 kPa, Gas | 3.44
370 K, 105.5 kPa, Gas | 5.15
370 K, 120.9 kPa, Gas | 6.04
370 K, 154.8 kPa, Gas | 7.64
370 K, 176.6 kPa, Gas | 8.92
370 K, 226.2 kPa, Gas | 11.41
370 K, 256.7 kPa, Gas | 13.19
370 K, 328.5 kPa, Gas | 16.95
370 K, 370 kPa, Gas | 19.53
370 K, 471.8 kPa, Gas | 25.21
370 K, 527.2 kPa, Gas | 28.67
370 K, 666.8 kPa, Gas | 37.39
370 K, 737.9 kPa, Gas | 42.35
370 K, 920.6 kPa, Gas | 55.26
370 K, 1005.3 kPa, Gas | 62.34
370 K, 1205.2 kPa, Gas | 80.41
370 K, 1224.5 kPa, Gas | 81.87
370 K, 1277.5 kPa, Gas | 87.49
370 K, 1278.1 kPa, Gas | 88.01
370 K, 1404.3 kPa, Liquid | 992.2
370 K, 1431.7 kPa, Liquid | 992.85
370 K, 1520 kPa, Liquid | 995.4
370 K, 1998.7 kPa, Liquid | 1006.05
370 K, 2031.8 kPa, Liquid | 1006.03
370 K, 2519.7 kPa, Liquid | 1016.39
370 K, 3015.7 kPa, Liquid | 1025.26
370 K, 3042 kPa, Liquid | 1024.99
370 K, 3496.9 kPa, Liquid | 1033.2
370 K, 4012.1 kPa, Liquid | 1041.13
370 K, 4077.7 kPa, Liquid | 1041.14
370 K, 4515.8 kPa, Liquid | 1048.28
370 K, 5031.9 kPa, Liquid | 1055.14
370 K, 5127.4 kPa, Liquid | 1055.31
370 K, 5527.5 kPa, Liquid | 1061.36
370 K, 5982.5 kPa, Liquid | 1066.79
370 K, 6112.9 kPa, Liquid | 1067.19
370 K, 6526.3 kPa, Liquid | 1072.95
370 K, 6886.1 kPa, Liquid | 1076.82
370 K, 7213.4 kPa, Liquid | 1079.13
380 K, 74.8 kPa, Gas | 3.57
380 K, 110.1 kPa, Gas | 5.3
380 K, 161.5 kPa, Gas | 7.87
380 K, 235.9 kPa, Gas | 11.67
380 K, 268.9 kPa, Gas | 13.32
380 K, 342.4 kPa, Gas | 17.25
380 K, 408.5 kPa, Gas | 20.83
380 K, 492.2 kPa, Gas | 25.55
380 K, 502.4 kPa, Gas | 26.12
380 K, 602.7 kPa, Gas | 31.98
380 K, 697.5 kPa, Gas | 37.81
380 K, 703.9 kPa, Gas | 38.16
380 K, 804.6 kPa, Gas | 44.65
380 K, 899.8 kPa, Gas | 51.1
380 K, 969.2 kPa, Gas | 56.06
380 K, 1019.1 kPa, Gas | 59.71
380 K, 1101.8 kPa, Gas | 66.08
380 K, 1212.9 kPa, Gas | 75.17
380 K, 1295.3 kPa, Gas | 82.53
380 K, 1299.2 kPa, Gas | 82.86
380 K, 1417.2 kPa, Gas | 94.38
380 K, 1486.5 kPa, Gas | 101.79
380 K, 1486.8 kPa, Gas | 101.8
380 K, 1499.7 kPa, Gas | 103.34
380 K, 1530.9 kPa, Gas | 107.11
380 K, 1744.3 kPa, Liquid | 935.88
380 K, 1763.3 kPa, Liquid | 936.59
380 K, 1785 kPa, Liquid | 937.35
380 K, 1807.8 kPa, Liquid | 938.21
380 K, 2057.3 kPa, Liquid | 946.7
380 K, 2481.3 kPa, Liquid | 959.56
380 K, 2986.2 kPa, Liquid | 972.71
380 K, 3036.6 kPa, Liquid | 973.66
380 K, 3496.2 kPa, Liquid | 984.34
380 K, 4004.9 kPa, Liquid | 994.7
380 K, 4035.7 kPa, Liquid | 994.89
380 K, 4514.5 kPa, Liquid | 1004.14
380 K, 4998.2 kPa, Liquid | 1012.37
380 K, 5093.2 kPa, Liquid | 1013.21
380 K, 5510.3 kPa, Liquid | 1020.45
380 K, 6032.6 kPa, Liquid | 1028.11
380 K, 6103.7 kPa, Liquid | 1028.48
380 K, 6514.1 kPa, Liquid | 1034.76
380 K, 7011.9 kPa, Liquid | 1041.19
380 K, 7127.1 kPa, Liquid | 1041.96

mass density
Conditions | 360 K | 370 K | 380 K
Gas | 77.81 kg/m3 | 101.33 kg/m3 | 133.96 kg/m3
Liquid | 1040.97 kg/m3 and 1042.15 kg/m3 and 1042.21 kg/m3 | 991.98 kg/m3 and 992.32 kg/m3 and 992.42 kg/m3 | 934.86 kg/m3 and 935.87 kg/m3
